Source: US20020098186A1, “Use of endothelin inhibitors for treatment or prevention of fibrotic disorders” (priority 1999, published 2002)

Assays:
procollagen α1(I) RNA = experiment: Multiprobe RNAse protection assay of liver RNA, procollagen α1(I); assay type: in vivo, rat; conditions: BDO rats, LU 80 mg/kg/d for 6 weeks; relative to GAPDH; p<0.05
Procedure: (§1) Plasmids encoded predescribed regions of the rat procollagen α1 (I) and […] (GAPDH) genes, encompassing 230 bp (Bam HI/Rsal sites) and 102 bp (position 335-437), resp. (44, 45). The rat tissue inhibitor of metalloproteinase-1 (TIMP-1) probe (position 176-439) was prepared by RT-PCR according to the published sequence (J. P. Iredale, R. C. Benyon, M. J. P. Arthur (1996). Hepatology 24:176-184.), cloned into pZErO-1 (Invitrogen, San Diego, Calif., U.S.A.) and confirmed by restriction enzyme analysis. Preparation of riboprobes: The cDNA templates were linearized with appropriate restriction endonucleases. […] Riboprobes were purified by electrophoresis through a denaturing polyacrylamide gel and the radioactivity of eluted probes were measured by liquid scintillation counting. […] Autoradiographic signals were analyzed with the public domain NTH Image Program. The procollagen α1(I) and TIMP-1 RNA signals were normalized to the signal of GAPDH RNA and expressed as relative abundance (arbitrary units). 10 liver samples each of negative controls, of untreated rats with BDO and of rats with BDO that received LU at 80 mg/kg/d were analyzed.

TIMP-1 RNA = experiment: Multiprobe RNAse protection assay of liver RNA, TIMP-1; assay type: in vivo, rat; conditions: BDO rats, LU 80 mg/kg/d for 6 weeks; relative to GAPDH; p<0.05
Procedure: as §1

[1] = Tolerability in BDO and sham-operated rats (death, renal toxicity, food consumption, measured parameters); assay type: in vivo
Procedure: Female adult wistar rats, average weight 206±19 g, underwent the following microsurgical procedure under an operating microscope (OPMI 6-2, Zeiss, Germany) (B. Gerling, M. Becker, J. Waldschmidt, D. Schuppan (1996). J. Hepatol. 25:79-84; G. Boigk, L. Stroedter, H. Herbst H, et al. (1997). Hepatology 26:643-639.): 1. midline abdominal incision following anaesthesia with 100 mg/kg ketamine-hydroochloride (Ketanest®, Parke-Davis, Germany) and 10 mg/kg 5,6-dihydro-2-(2,6-xylidino)-4H-1,3-thiazine-hydrochloride (Rompun®, Bayer, Germany); 2. dissection of the common bile duct, insertion of a teflon catheter (Abbocath -T 26 G, venisystems, U.S.A.) and placement of a distal complete and a proximal incomplete ligature with 5-0 silk (Permahand , Ethicon, Germany); 3. retrograde injection of sodium-amidotrizoate (Ethibloc®, Ethicon Germany) at a dose of 0.02 ml/100 g body weight; 4. removal of the catheter, closure of the proximal ligature, scission of the bile duct between the ligatures and wound closure. After bile duct occlusion (BDO), animals received normal chow (Altromin®, Lage, Germany) and were allowed free access to water. […] The following therapeutic groups were formed: 1. BDO and LU at 80 mg/kg/d for 6 weeks (BDO 80/1-6:n=20); 2. BDO and LU at 80 mg/kg/d from week 4-6 of BDO (BDO 80/4-6:n=20); 3. BDO and LU at 10 mg/kg/d (sham 80/ 1-6:n=10), rats without medication (control: n=10) and bile duct occluded animals without treatment for 6 weeks (BDO: n=20) served as controls.
Early mortality (within 1 h to 3 days) in rats with BDO was due to local infection and amounted to 9%. […] After 6 weeks rats were sacrificed under ketanest(rompun-anaesthesia by puncture of the right ventricle and exsanguination. Heart, liver, spleen and kidneys were weighed, and 1-2 g pieces of the left and the right liver lobes fixed in 4% formalin for histology and hydroxyproline (HYP) determinations.
Rats with sham operation and rats with BDO were fed the oral endothelin A receptor antagonist LU 135252 (LU).
However, liver collagen (both as relative and total liver collagen content), which was increased 6- and 12-fold above normal, resp., in the untreated group with BDO, was reduced by 50-55% in rats on 80 mg LU/kg/d over the 6 weeks of BDO (p<0.001) (FIG. 1). […] Since contrary to the sham-operated rats, LU at 80 mg/kg/d which represents a high dose, caused death dose-dependently due to rental tubular necrosis in 50% and 25% of the two treatment groups, resp., a second experiment with a lower dose (10 mg/kg/d) over 6 weeks of BDO was performed.

COc1cc(OC)nc(O[C@H](C(=O)O)C(OC)(c2ccccc2)c2ccccc2)n1 [LU]
Reduction of procollagen α1(I) mRNA level (procollagen α1(I) RNA): 35%
Reduction of TIMP-1 mRNA level (TIMP-1 RNA): 55%
Death or renal toxicity ([1]; BDO rats, 10 mg/kg/d over 6 weeks): no death or renal toxicity was observed
Death due to renal tubular necrosis (share of treatment group) ([1]; BDO rats, LU 80 mg/kg/d for 6 weeks): 50%
Death due to renal tubular necrosis (share of treatment group) ([1]; BDO rats, LU 80 mg/kg/d from week 4-6): 25%
Food consumption by the animals ([1]; LU mixed with the chow): did not alter food consumption
Measured parameters (body and organ weights, liver collagen, liver histology, clinical chemical values) ([1]; sham-operated rats, LU 80 mg/kg/d for 6 weeks): did not alter any of the measured parameters
